Data as given in patent US6864217B2, “Herbicidal compositions with substituted phenylsulfonylureas for controlling weeds in rice” (Hoechst Schering AgrEvo GmbH, priority 1998, dated 2005).
Structures can show the parent of a compound that is named as a salt.

Experiments:
Oryza sativa [1] = experiment: Table 2a field trial, treatment at the 1-2 leaf stage rice: rice damage; conditions: 28 days after application
Protocol: (§6) The examples mentioned below were carried out in the greenhouse, and in some instances, in field trials.

Echinochloa crusgalli [2] = experiment: Table 6 field trial, treatment at the 1-2 leaf stage: weed control; type: in vivo; conditions: 2 g of ai/ha, 28 days after application
Protocol: as §6

Oryza sativa [3] = experiment: Table 9 greenhouse trial, treatment at the 1-2 leaf stage: rice damage; type: in vivo; conditions: 22 days after application
Protocol: (§1) Seeds or rhizome pieces of mono- and dicotyledonous weed plants are placed into sandy loam soil in plastic pots, covered with soil and grown in a greenhouse under good growth conditions (temperature, atmospheric humidity, water supply). Weeds which are encountered in the cultivation of rice are cultivated in pots in which the water level is up to 2 cm over the soil surface. Three weeks after sowing, the test plants are treated at the three-leaf stage. The active compound combinations according to the invention, formulated as wettable powders or emulsion concentrates, and, in parallel experiments, the correspondingly formulated individual active compounds are sprayed onto the green parts of the plants at different dosages using an amount of water of 300 to 600 l/ha (converted), and, after about 3 to 4 weeks of the test plants in the greenhouse under optimum growth conditions (temperature, atmospheric humidity, water supply), the effect of the preparations is evaluated visually in comparison to untreated controls. In the case of rice or weeds which are encountered in the cultivation of rice, the active compounds are also added directly to the water for irrigation (application analogous to the so-called granules application) or sprayed onto plants and added to the water for irrigation. The experiments were designed with several, up to five, repetitions. The herbicidal compositions according to the invention also have good herbicidal post-emergence activity against a broad spectrum of economically important weed grasses and broad-leaved weeds.
(§2) Greenhouse trial: Treatment at the 1-2 leaf stage, evaluation 22 days after the application.

Echinochloa crusgalli [4] = experiment: Table 11 greenhouse trial, treatment at the 1-2 leaf stage: weed control; type: in vivo; conditions: 20 days after application
Protocol: as §1
Greenhouse trial: Treatment at the 1-2 leaf stage, evaluation 20 days after the application.

Ipomoea hederacea = experiment: Table 20 field trial, treatment at the 4-6 leaf stage: weed control; type: in vivo; conditions: 2.5 g of ai/ha, 28 days after application
From the text: Field trial: Treatment at the 4-6 leaf stage, evaluation 28 days after the application.

Echinochloa crusgalli [5] = experiment: Table 8 greenhouse trial, treatment at the 1-2 leaf stage: weed control; type: in vivo; conditions: 22 days after application
From the text: as §1, with “Three weeks after sowing, the test plants are treated at the three-leaf stage.” left out

Sagittaria pygmaea [6] = experiment: Table 14 greenhouse trial, treatment at the 3-4 leaf stage: weed control; type: in vivo; conditions: 21 days after application
Protocol: as §1
Greenhouse trial: Treatment at the 3-4 leaf stage, evaluation 21 days after the application.

Echinochloa crusgalli [7] = experiment: Table 4 field trial: weed control; type: in vivo
Protocol: as §6

Echinochloa crusgalli [8] = experiment: Table 7 field trial, treatment at the 1-2 leaf stage: weed control; type: in vivo; conditions: 2 g of ai/ha, 28 days after application
Protocol: as §6

Oryza sativa [9] = experiment: Table 21 field trial, treatment at the 2 leaf stage: rice damage; type: in vivo; conditions: 2.5 g of ai/ha; field trial, 28 days after application
From the text: Field trial: Treatment at the 2 leaf stage, evaluation 28 days after the application.

Oryza sativa [10] = experiment: Table 22 field trial, treatment: 1-2 leaf stage: rice damage; type: in vivo; conditions: 28 days after application
From the text: (§3) Field trial: Treatment: 1-2 leaf stage, evaluation 28 days after the application.

Oryza sativa [11] = experiment: Table 8 greenhouse trial, treatment at the 1-2 leaf stage: rice damage; type: in vivo; conditions: 22 days after application
From the text: as §1, with “Three weeks after sowing, the test plants are treated at the three-leaf stage.” left out

Oryza sativa [12] = experiment: Table 25 field trial, treatment at the 3 leaf stage: rice damage; type: in vivo; conditions: 33 days after application
From the text: (§4) Field trial: Treatment at the 3 leaf stage, evaluation 33 days after the application.

Oryza sativa [13] = experiment: Table 6 field trial, treatment at the 1-2 leaf stage: rice damage; type: in vivo; conditions: 2 g of ai/ha; field trial, 28 days after application
Protocol: as §6

Commelina benghalensis = experiment: Table 26 field trial, treatment at the 3 leaf stage: weed control; type: in vivo; conditions: 33 days after application
From the text: as §4

Cyperus iria = experiment: Table 23 field trial, treatment: 4-6 leaf stage: weed control; type: in vivo; conditions: 36 days after application
From the text: (§5) Field trial: Treatment: 4-6 leaf stage, evaluation 36 days after the application.

Oryza sativa [14] = experiment: Table 24 field trial, treatment by the pre-emergence method: rice damage; type: in vivo; conditions: field trial, pre-emergence method, 53 days after application
From the text: Field trial: Treatment by the pre-emergence method, evaluation 53 days after the application.

Echinochloa crusgalli [15] = experiment: Table 9 greenhouse trial, treatment at the 1-2 leaf stage: weed control; type: in vivo; conditions: 22 days after application
Protocol: as §1, §2

Sagittaria pygmaea [16] = experiment: Table 22 field trial, treatment: 1-2 leaf stage: weed control; type: in vivo; conditions: 28 days after application
From the text: as §3

Oryza sativa [17] = experiment: Table 7 field trial, treatment at the 1-2 leaf stage: rice damage; type: in vivo; conditions: 2 g of ai/ha, 28 days after application
Protocol: as §6

Sagittaria pygmaea [18] = experiment: Table 13 greenhouse trial, treatment at the 5-6 leaf stage: weed control; type: in vivo; conditions: 20 days after application
Protocol: as §1
Greenhouse trial: Treatment at the 5-6 leaf stage, evaluation 20 days after the application.

Oryza sativa [19] = experiment: Table 23 field trial, treatment: 4-6 leaf stage: rice damage; type: in vivo; conditions: 36 days after application
From the text: as §5

COC(=O)c1ccc(I)cc1S(=O)(=O)NC(=O)Nc1nc(C)nc(OC)n1 [A1*), Sodium salt of methyl 4-iodo-2-[3-(4-methoxy-6-methyl-1,3,5-triazin-2-yl)ureidosulfonyl]benzoate]
ORYSW % damage (Oryza sativa [1]; 1.25 g of ai/ha): 10%
ORYSW % damage (Oryza sativa [1]; 2.5 g of ai/ha): 25%
ORYSW % damage (Oryza sativa [1]; 5 g of ai/ha): 25%
ECHCG % control (Echinochloa crusgalli [2]): 10%
ORYSW % damage (Oryza sativa [3]; 1.5 g of ai/ha): 10%
ORYSW % damage (Oryza sativa [3]; 3 g of ai/ha): 10%
ECHCG % control (Echinochloa crusgalli [4]; 1.5 g of ai/ha): 40%
ECHCG % control (Echinochloa crusgalli [4]; 3 g of ai/ha): 60%
IPOHE % control (Ipomoea hederacea): 30%
ECHCG % control (Echinochloa crusgalli [5]; 1.5 g of ai/ha): 40%
ECHCG % control (Echinochloa crusgalli [5]; 3 g of ai/ha): 60%
SAGPY % control (Sagittaria pygmaea [6]; 1.5 g of ai/ha): 30%
SAGPY % control (Sagittaria pygmaea [6]; 3 g of ai/ha): 50%
ECHCG % control (Echinochloa crusgalli [7]; 1.25 g of ai/ha): 0%
ECHCG % control (Echinochloa crusgalli [7]; 2.5 g of ai/ha): 0%
ECHCG % control (Echinochloa crusgalli [7]; 5 g of ai/ha): 0%
ECHCG % control (Echinochloa crusgalli [8]): 10%
ORYSW % damage (Oryza sativa [9]): 8%
ORYSW % damage (Oryza sativa [10]; 2.5 g of ai/ha): 6%
ORYSW % damage (Oryza sativa [10]; 5 g of ai/ha): 12%
ORYSW % damage (Oryza sativa [11]; 1.5 g of ai/ha): 10%
ORYSW % damage (Oryza sativa [11]; 3 g of ai/ha): 10%
ORYSW % damage (Oryza sativa [12]; 1.25 g of ai/ha): 6%
ORYSW % damage (Oryza sativa [12]; 2.5 g of ai/ha): 12%
ORYSW % damage (Oryza sativa [13]): 0%
COMBE % control (Commelina benghalensis; 2.5 g of ai/ha): 47%
COMBE % control (Commelina benghalensis; 5 g of ai/ha): 67%
CYPIR % control (Cyperus iria; 0.62 g of ai/ha): 53%
CYPIR % control (Cyperus iria; 1.25 g of ai/ha): 85%
CYPIR % control (Cyperus iria; 2.5 g of ai/ha): 98%
ORYSW % damage (Oryza sativa [14]; 2.5 g of ai/ha): 0%
ORYSW % damage (Oryza sativa [14]; 5 g of ai/ha): 0%
ECHCG % control (Echinochloa crusgalli [15]; 1.5 g of ai/ha): 40%
ECHCG % control (Echinochloa crusgalli [15]; 3 g of ai/ha): 60%
SAGPY % control (Sagittaria pygmaea [16]; 2.5 g of ai/ha): 20%
SAGPY % control (Sagittaria pygmaea [16]; 5 g of ai/ha): 40%
ORYSW % damage (Oryza sativa [17]): 0%
SAGPY % control (Sagittaria pygmaea [18]; 1.5 g of ai/ha): 30%
SAGPY % control (Sagittaria pygmaea [18]; 3 g of ai/ha): 50%
ORYSW % damage (Oryza sativa [19]; 0.62 g of ai/ha): 3%
ORYSW % damage (Oryza sativa [19]; 1.25 g of ai/ha): 8%
ORYSW % damage (Oryza sativa [19]; 2.5 g of ai/ha): 12%
